Laboratory results: patent US4952580A, “Pesticidal polyhaloalkene derivatives” (priority 1988, dated 1990)
Read-outs that look alike come from different tables or passages of the source.

Tests used:
[1] = tested on: stunt nematode; assay: Stunt Nematode Test; type: in vivo; details: 672 h, Table 4a; rate 5 ppm; read-out: Percent Control
Experimental: (§1) Compounds of this invention were tested as follows for nematicidal and anthelmintic activity as dust formulations (initial and residual activity) and as acetone/water formulations (systemic activity). The formulations are described above.
The procedure was substantially the same as in the […] seedling, with subsequent inoculation of the soil with combined larvae and adult stunt nematodes. The samples were evaulated approximately four weeks after infestation. […] "Percent control" means the difference between average population counts between untreated and treated samples, divided by average population count of untreated sample, multiplied by 100.

[2] = tested on: lesion nematode; assay: Lesion Nematode Test; type: in vivo; details: Table 5, read-out: Percent Control; for pest or weed control at 2.5 ppm: rate 2.5 ppm
Experimental: as §1
The procedure was substantially the same as in the stunt nematode test described above except that pea seedlings were used. The results (Table 5 appended) show good control with many of the compounds at the application rates tested as compared with untreated samples (no control). "Percent Control" is defined as follows: [formula]

[3] = tested on: root-knot nematode (Meloidogyne incognita); assay: Initial Root-Knot Nematicidal Activity; type: in vivo; details: 336 h, read-out: Percent Control; for pest or weed control at 0.312 ppm: Table 2, Application Rate 0.312 ppm; for pest or weed control at 1.25 ppm: Table 2, Application Rate 1.25 ppm; for pest or weed control at 2.5 ppm: Table 2, Application Rate 2.5 ppm; for pest or weed control at 0.078 ppm: Table 2, Application Rate 0.078 ppm; for pest or weed control at 0.313 ppm: Table 2, Application Rate 0.313 ppm
Experimental: as §1
The activity against root-knot nematode (Meloidogyne incognita) was determined by incorporating the compound of the invention in nematode infested soil at rates in the range of 10 ppm to 0.078 ppm of compound. Several tomato or cucumber seedlings were planted in the nematode infested soil. Two weeks after planting the test pots were evaluated to ascertain the degree of galling (swelling) on the roots of the plants, indicating the control provided by the test chemical.
The results expressed as precent control (determined by knot index) are set forth as averages in Table 2 (appended). Knot index is a numerical designation assigned at evaluation, having the following meanings:
Percent control is related to knot index as follows:
When the Knot Index is between 0 and 1 it is further subdivided as follows to indicate how close the percent control is to 75% or 100%: […]

[4] = tested on: root-knot nematode; assay: Systemic Activity (basipetal, foliar spray) against root-knot nematode; type: in vivo, Meloidogyne incognita; details: 336 h, read-out: Percent Control; for pest or weed control at 2000 ppm: Table 8, rate 2000 ppm
Experimental: as §1
Compounds of the invention were tested for basipetal systemic activity against the root-knot nematode. In this test, tomato plants are grown in 10.2 cm diameter fiber pots containing steam-pasteurized soil mix (50%, soil, 50% sand) until 4-6 true leaves appear. Three of the pots are then placed on a turntable in a spray hood and the plants sprayed with 50 ml of water/acetone solution containing the test compound. The soil surface is covered during the spraying to prevent spraying of the soil. After treatment, the potted plants are placed in a lighted drying chamber. The plants are then grown in a growth chamber at 25° C. for three days and inoculated with a standard nematode culture by incorporating the inoculum into the top cm of soil in the pots. The plants are returned to the growth chamber for about two weeks at which time the pots are allowed to dry until the plants begin to wilt. The roots are shaken free of soil and the degree of galling (swelling) noted as compared to galling of untreated control plants. The results are expressed as Knot Index and Percent Control as defined in the initial root-knot nematode activity tests reported above in Table 2.

[5] = tested on: Caenorhabditis elegans; assay: C. Elegans Nematode Screening Test and Evaluation (in-vitro); details: Caenorhabditis elegans; for inhibition at 5 ppm / inhibition at 1.25 ppm / inhibition at 2.5 ppm: read-out: Percent Inhibition of Reproduction; for mortality at 5 ppm / mortality at 1.25 ppm / mortality at 2.5 ppm: read-out: Percent Mortality
Experimental: This in-vitro test using the free-living nematode Caenorhabditis elegans, is a modification of the assay developed by Simpkin and Coles, J. Chem. Tech. […] One milliliter of a test medium consisting of 5 mg ampicillin, 10,000 units of mycostatin and 10 ml of a dense suspension of Escherichia coli per 100 ml of a buffer solution, was pipetted into each well of a 24-well microtiter plate. The candidate nematicide, suspended at the appropriate concentration in dimethylsulfoxide, was added to the wells in […] volumes. Each rate of application was replicated two to three times. After thorough mixing of the contents of each well, 50 to 100 μl of a nematode suspension in a buffer was added so that each well received 10-15 nematodes. After the nematodes were added, the microtiter plates were incubated at 20° C. for 5-6 days.
The effect of the candidate nematicide on the survival and the reproduction of C. elegans was then evaluated by comparison of the level of population developed in the treated wells with that in untreated wells. Specific effects on population development, such as reduced egg hatch or molting disruption, were noted if they were evident.

[6] = tested on: cyst nematode; assay: Cyst Nematode Test; type: in vivo; details: Table 6; rate 5 ppm; read-out: Percent Control
Experimental: as §1
The procedures was substantially the same as described in the stunt nematode test except soybean seedlings were used. "Percent Control" (Table 6 appended) is as defined in the stunt nematode test results.

[7] = tested on: root-knot nematode; assay: Soil Mobility against root-knot nematode; type: in vivo, Meloidogyne incognita; details: 336 h, read-out: Percent Control
Experimental: as §1
The ability of nematicidal compounds of the invention to move through nematode-infested soil […] infested soil, and subsequently eluting the soil with 15 cm of water (equivalent to 15 cm of rainfall) into a series of two or more pots of untreated, but nematode-infested, soil. Specifically, the pots were 8 cm diameter plastic pots containing a 10 cm^3 layer of sand over a coarse grade filter paper disc. Sufficient soil was placed over the sand to fill the pots, and a second filter paper disc was placed over the soil. Each test compound-treated pot was nested over a series of two or more pots containing untreated, but nematode-infested soil, also containing sand filter paper discs as described for the treated soil pots. Fifteen cm of water was slowly dripped into the top pots and the pots were allowed to drain for 16-18 hours to remove excess water. The top filter of each pot was then removed and the pots were planted with a cucumber or tomato seedling. […] "Knot Index" and "Percent Control" are as defined in the initial root-knot nematode tests above.

[8] = tested on: root-knot nematode; assay: Residual Root-Knot Nematicidal Activity; type: in vivo, Meloidogyne incognita; details: read-out: Percent Control
Experimental: as §1
The ability of nematicidal compounds of the invention to control root-knot nematode infestations in soil over a period of time after treatment was evaluated. Dust formulations of test compound (5%) were incorporated into soil samples at test compound rates of 5 and 10 ppm. Subsequently, the treated soil samples were inoculated with nematode inoculum at weekly intervals, and Knot Index and Percent Control determined on seedlings planted in the soil samples. Specifically, soil treated with test compound was placed in 7.6 cm diameter fiber pots and stored in a greenhouse. At one, two and four weeks post-treatment, the appropriate number of pots was infested with root-knot nematode eggs and larvae. A cucumber or tomato seedling was planted in each pot and evaluated approximately two weeks after the soil infestation to obtain the test results reported in Tables 3 and 3a appended.

[9] = Table 2, Application Rate 0.625 ppm
[10] = 672 h, Table 3, inoculation 4 weeks after treatment
[11] = Table 2, Application Rate 0.156 ppm

## FC(F)=C(F)CCSc1nnc(SCc2ccc(Br)cc2)s1 [Compound 33, 2-(4-bromophenylmethylthio)-5-(3,4,4-trifluoro-3-butenylthio)-1,3,4-thiadiazole]
[1]
  pest or weed control at 5 ppm: 52%
[2]
  pest or weed control at 2.5 ppm: 46%
[3]
  pest or weed control at 0.312 ppm: 38%
  pest or weed control at 1.25 ppm: 84%
  pest or weed control at 2.5 ppm: 97%
[3]; [9]
  pest or weed control at 0.625 ppm: 70%
[4]; Table 8, rate 2500 ppm
  pest or weed control at 2500 ppm: 17%
[5]; Table 9 screen
  inhibition at 5 ppm: 100%
  mortality at 5 ppm: 100%
[5]; Table 10 evaluation
  mortality at 5 ppm: 100%
  inhibition at 1.25 ppm: 100%
  mortality at 1.25 ppm: 100%
  inhibition at 2.5 ppm: 100%
  mortality at 2.5 ppm: 100%

## FC(F)=C(F)CCSc1nc(Cl)ns1 [Compound 8, 3-chloro-5-(3,4,4-trifluoro-3-butenylthio)-1,2,4-thiadiazole]
[3]
  pest or weed control at 0.078 ppm: 58%
  pest or weed control at 0.312 ppm: 100%
  pest or weed control at 1.25 ppm: 100%
  pest or weed control at 2.5 ppm: 100%
  pest or weed control at 0.156 ppm: 95%
[3]; [9]
  pest or weed control at 0.625 ppm: 100%
[6]
  pest or weed control at 5 ppm: 92%
[7]; Table 7, 5 ppm, Bottom container
  pest or weed control at 5 ppm: 96%
[7]; Table 7, 5 ppm, Middle container
  pest or weed control at 5 ppm: 100%
[7]; Table 7, 5 ppm, Top container
  pest or weed control at 5 ppm: 100%
[8]; [10]
  pest or weed control at 5 ppm: 98%

## FC(F)=C(F)CCSc1nnc(SCC2CC2)s1 [Compound 15, 2-cyclopropylmethylthio-5-(3,4,4-trifluoro-3-butenylthio)-1,3,4-thiadiazole]
[3]
  pest or weed control at 0.313 ppm: 6%
  pest or weed control at 1.25 ppm: 97%
  pest or weed control at 2.5 ppm: 100%
[3]; [9]
  pest or weed control at 0.625 ppm: 31%
[4]; foliar
  pest or weed control at 2000 ppm: 83%

## FC(F)=C(F)CCSc1nnc(-c2ccc(Cl)cc2)o1 [Compound 17, 2-(4-chlorophenyl)-5-(3,4,4-trifluoro-3-butenylthio)-1,3,4-oxadiazole]
[3]
  pest or weed control at 2.5 ppm: 100%
[3]; Table 2, Application Rate 5.0 ppm
  pest or weed control at 5 ppm: 100%
[3]; Table 2, Application Rate 10.0 ppm
  pest or weed control at 10 ppm: 100%
[4]; foliar
  pest or weed control at 2000 ppm: 42%

## CC(C)(C)CC(C)(C)Sc1nnc(SCCC(F)=C(F)F)s1 [Compound 12, 2-(1,1,3,3-tetramethylbutylthio)-5-(3,4,4-trifluoro-3-butenylthio)-1,3,4-thiadiazole]
[3]
  pest or weed control at 0.313 ppm: 8%
  pest or weed control at 1.25 ppm: 79%
  pest or weed control at 2.5 ppm: 100%
[3]; [9]
  pest or weed control at 0.625 ppm: 69%
[4]
  pest or weed control at 2000 ppm: 73%
[4]; foliar
  pest or weed control at 2000 ppm: 99%

## FC(F)=C(F)CCSc1nnc(SCCC(F)=C(F)F)s1 [Compound 13, 2,5-di(3,4,4-trifluoro-3-butenylthio)-1,3,4-thiadiazole]
[3]
  pest or weed control at 0.078 ppm: 0%
  pest or weed control at 0.313 ppm: 71%
  pest or weed control at 1.25 ppm: 99%
  pest or weed control at 2.5 ppm: 99%
  pest or weed control at 0.625 ppm: 95%
[3]; [11]
  pest or weed control at 0.156 ppm: 13%
[3]; [9]
  pest or weed control at 0.625 ppm: 96%
[8]; 168 h, Table 3, inoculation 1 week after treatment
  pest or weed control at 5 ppm: 98%
[8]; 168 h, Table 3, 10 ppm, inoculation 1 week after treatment
  pest or weed control at 10 ppm: 99%
[8]; 336 h, Table 3, inoculation 2 weeks after treatment
  pest or weed control at 5 ppm: 98%
[8]; 336 h, Table 3, 10 ppm, inoculation 2 weeks after treatment
  pest or weed control at 10 ppm: 99%
[8]; [10]
  pest or weed control at 5 ppm: 75%
[8]; 672 h
  pest or weed control at 10 ppm: 95%
[4]; foliar
  pest or weed control at 2000 ppm: 79%

## FC(F)=C(F)CCSc1nnc(SCc2ccccc2)s1 [Compound 32, 2-phenylmethylthio-5-(3,4,4-trifluoro-3-butenylthio)-1,3,4-thiadiazole]
[1]
  pest or weed control at 5 ppm: 84%
[2]; rate 1.25 ppm
  pest or weed control at 1.25 ppm: 0%
[2]
  pest or weed control at 2.5 ppm: 28%
[2]; rate .625 ppm
  pest or weed control at 0.625 ppm: 0%
[3]
  pest or weed control at 0.078 ppm: 8%
  pest or weed control at 0.312 ppm: 78%
  pest or weed control at 1.25 ppm: 99%
  pest or weed control at 2.5 ppm: 100%
[3]; [11]
  pest or weed control at 0.156 ppm: 31%
[3]; [9]
  pest or weed control at 0.625 ppm: 97%
[7]; Table 7a, 5% dust, 5 ppm, BOTTOM container
  pest or weed control at 5 ppm: 25%
[7]; Table 7a, 5% dust, 5 ppm, MIDDLE container
  pest or weed control at 5 ppm: 75%
[7]; Table 7a, 5% dust, 5 ppm, TOP container
  pest or weed control at 5 ppm: 99%
[8]; 168 h, Table 3a, 5% dust, inoculation 1 week post-treatment
  pest or weed control at 5 ppm: 99%
[8]; 336 h, Table 3a, 5% dust, inoculation 2 weeks post-treatment
  pest or weed control at 5 ppm: 99%
[8]; 672 h, Table 3a, 5% dust, inoculation 4 weeks post-treatment
  pest or weed control at 5 ppm: 82%
[4]; foliar
  pest or weed control at 2000 ppm: 25%
[5]; Table 9 screen
  inhibition at 5 ppm: 100%
  mortality at 5 ppm: 100%
[5]; Table 10 evaluation
  mortality at 5 ppm: 8%
  inhibition at 1.25 ppm: 25%
  mortality at 1.25 ppm: 0%
  inhibition at 2.5 ppm: 42%
  mortality at 2.5 ppm: 0%
